From US20250257055A1, “TERTIARY AMIDE DERIVATIVES SUBSTITUTED WITH 4-MEMBERED RING STRUCTURE” (Sumitomo Pharma Co., Ltd., priority 2024, published 2025)
Values after ≈ are worked out from the molar mass of the structure shown. Read-outs that look alike come from different tables or passages of the source.

Tests used:
[1] = target: recombinant p300 (Homo sapiens (Human), UniProt Q09472); assay: HAT activity inhibition experiment (SensoLyte HAT(p300) Assay Kit); format: biochemical; details: recombinant p300, histone H3 peptide, acetyl CoA
recombinant p300, sequence (Q09472 whole entry): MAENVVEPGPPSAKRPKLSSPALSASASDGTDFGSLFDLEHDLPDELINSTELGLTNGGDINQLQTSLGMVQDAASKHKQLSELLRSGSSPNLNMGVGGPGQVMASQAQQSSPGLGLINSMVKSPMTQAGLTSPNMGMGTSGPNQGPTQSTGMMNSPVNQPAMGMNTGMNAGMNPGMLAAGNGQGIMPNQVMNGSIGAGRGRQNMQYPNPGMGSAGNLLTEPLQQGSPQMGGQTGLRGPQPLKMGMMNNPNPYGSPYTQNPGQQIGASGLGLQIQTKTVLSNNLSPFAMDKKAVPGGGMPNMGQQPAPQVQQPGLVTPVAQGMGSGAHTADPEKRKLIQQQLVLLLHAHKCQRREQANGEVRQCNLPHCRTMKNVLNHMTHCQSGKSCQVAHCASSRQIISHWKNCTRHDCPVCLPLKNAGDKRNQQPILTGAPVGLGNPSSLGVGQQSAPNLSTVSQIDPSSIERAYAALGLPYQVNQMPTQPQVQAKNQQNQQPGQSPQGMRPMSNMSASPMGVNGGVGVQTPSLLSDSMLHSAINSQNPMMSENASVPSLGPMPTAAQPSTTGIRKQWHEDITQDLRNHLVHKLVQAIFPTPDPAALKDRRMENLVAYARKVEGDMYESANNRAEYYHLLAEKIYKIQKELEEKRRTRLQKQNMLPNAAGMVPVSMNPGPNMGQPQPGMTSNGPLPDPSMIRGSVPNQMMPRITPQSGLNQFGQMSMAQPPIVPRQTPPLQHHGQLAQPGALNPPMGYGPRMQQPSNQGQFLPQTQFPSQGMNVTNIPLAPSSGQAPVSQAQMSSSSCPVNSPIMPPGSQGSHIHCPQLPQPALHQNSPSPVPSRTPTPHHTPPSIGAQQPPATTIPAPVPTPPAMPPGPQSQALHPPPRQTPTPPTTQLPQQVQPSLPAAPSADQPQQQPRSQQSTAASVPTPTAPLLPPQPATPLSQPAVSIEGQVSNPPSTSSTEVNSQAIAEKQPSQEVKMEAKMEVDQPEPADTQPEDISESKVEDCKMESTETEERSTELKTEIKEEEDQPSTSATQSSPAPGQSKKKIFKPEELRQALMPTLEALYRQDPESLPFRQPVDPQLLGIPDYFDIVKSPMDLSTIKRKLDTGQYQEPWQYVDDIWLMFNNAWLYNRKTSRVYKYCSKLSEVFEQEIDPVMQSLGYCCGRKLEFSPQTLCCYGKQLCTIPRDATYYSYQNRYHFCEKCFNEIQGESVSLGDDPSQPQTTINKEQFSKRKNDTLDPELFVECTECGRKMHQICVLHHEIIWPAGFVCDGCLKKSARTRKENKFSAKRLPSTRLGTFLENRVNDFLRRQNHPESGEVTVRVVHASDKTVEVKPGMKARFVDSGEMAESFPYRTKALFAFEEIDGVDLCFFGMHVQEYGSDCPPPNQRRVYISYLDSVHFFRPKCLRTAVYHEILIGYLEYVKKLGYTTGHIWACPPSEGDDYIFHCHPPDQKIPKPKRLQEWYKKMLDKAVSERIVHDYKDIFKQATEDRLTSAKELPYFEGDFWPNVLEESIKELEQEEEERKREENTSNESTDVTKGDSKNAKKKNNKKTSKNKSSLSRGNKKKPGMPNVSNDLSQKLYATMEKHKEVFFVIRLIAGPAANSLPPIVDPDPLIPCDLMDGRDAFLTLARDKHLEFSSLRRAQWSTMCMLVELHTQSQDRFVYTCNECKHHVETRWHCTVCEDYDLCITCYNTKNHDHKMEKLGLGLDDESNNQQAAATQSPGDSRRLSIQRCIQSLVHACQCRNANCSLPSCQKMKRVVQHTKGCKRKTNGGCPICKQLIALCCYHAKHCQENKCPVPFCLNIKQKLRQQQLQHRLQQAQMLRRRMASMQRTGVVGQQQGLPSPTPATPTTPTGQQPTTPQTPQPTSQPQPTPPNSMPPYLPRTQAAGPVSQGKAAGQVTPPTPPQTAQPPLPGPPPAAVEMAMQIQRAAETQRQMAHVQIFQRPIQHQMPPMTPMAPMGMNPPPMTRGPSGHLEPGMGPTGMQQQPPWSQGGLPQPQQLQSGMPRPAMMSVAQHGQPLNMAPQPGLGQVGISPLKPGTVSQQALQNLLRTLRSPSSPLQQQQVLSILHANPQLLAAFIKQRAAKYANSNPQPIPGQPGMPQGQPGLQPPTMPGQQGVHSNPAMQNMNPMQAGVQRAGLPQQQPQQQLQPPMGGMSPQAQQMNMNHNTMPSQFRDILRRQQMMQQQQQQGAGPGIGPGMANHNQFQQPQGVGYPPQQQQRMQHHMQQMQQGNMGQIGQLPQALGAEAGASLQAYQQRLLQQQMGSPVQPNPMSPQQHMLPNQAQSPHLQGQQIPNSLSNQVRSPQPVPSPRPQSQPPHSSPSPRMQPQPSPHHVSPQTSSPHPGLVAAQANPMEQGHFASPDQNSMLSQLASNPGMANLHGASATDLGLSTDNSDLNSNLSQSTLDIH
Outline: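 Recombinant human p300 preincubated with compound 10 min at room temperature, then acetyl-CoA and histone H3 peptide added and reacted 30 min at 37 °C. After stop, developer added for 30 min at room temperature in the dark; fluorescence read at Ex 389/Em 513 nm.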

[2] = tested on: G-401 cells; assay: Cell proliferation inhibition experiment using G-401 cells; format: cell-based; details: Homo sapiens, 72 h, cultured for 3 days, CellTiter-Glo
Outline: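 Malignant rhabdoid tumor-derived cells, grown in McCoy's 5A with 10% FBS, were seeded at 500 cells/well and dosed one day later (final DMSO 0.1%). After 3 days of culture at 37° C, viability was read by CellTiter-Glo luminescence.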

[3] = tested on: Kuramochi cells; assay: Cell proliferation inhibition experiment using Kuramochi cells; format: cell-based; details: 144 h, cultured for 6 days, CellTiter-Glo
Outline: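 Ovarian cancer Kuramochi cells in RPMI-1640 with 10% FBS, seeded at 500 cells/well and dosed one day later at 0.1% final DMSO. After 6 days of culture at 37°C, 5% CO2, viability read by CellTiter-Glo luminescence.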

[4] = tested on: RMGI cells; assay: Cell proliferation inhibition experiment using RMGI cells; format: cell-based; details: Homo sapiens, RMG-I, 144 h, cultured for 6 days, CellTiter-Glo
Description: RMGI cells (derived from ovarian cancer) were obtained from JCRB cell bank. RMGI cells were cultured in Ham's F12 medium containing 10% fetal bovine serum and 1% penicillin/streptomycin under conditions of 37° C. and 5% CO2.
200 cells per well were seeded in a 384-well plate. One day after seeding, Examples 3, 7, 9, 10, 11, 20, and 23 to 25 were added so that the final concentration of DMSO was 0.1%, and the cells were cultured for 6 days. After the culture was completed, the cell viability was measured using CellTiter-Glo Luminescent Cell Viability Assay (Promega, G7570).

[5] = Solubility test; format: physicochemical; details: aqueous buffer, thermodynamic from solid, 5° C., overnight
Description: The solubility was measured for Examples 7, 10, 20, 23, 24, and 30 to 34, Comparative Example 1, and Comparative Example 2. The test compound was added to 10 mmol/L glycine buffer (pH 2.0) and 10 mmol/L citrate buffer (pH 3.0), and the mixture was stored in a thermostatic chamber at 5° C. After standing overnight, the mixture was filtered through a membrane filter, and the concentration of the filtrate was measured by HPLC.

[6] = Membrane permeability test (PAMPA); format: in vitro ADME
Outline: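 Donor compartment held compound in system solution over a GIT Lipid-0 membrane, with sink buffer on the acceptor side; incubation 4 h at 37° C. Donor and acceptor concentrations were read by UV (190-500 nm), or by LC-MS for weakly absorbing compounds, and Pe (10^−6 cm/sec) was calculated.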

[7] = tested on: G-401 xenograft; assay: Drug efficacy evaluation by intravenous administration using G-401 xenograft mice model; format: in vivo; details: for antitumor effect (in words): G-401 xenograft model, intravenous administration; for T/C: intravenous (tail vein), 14 days
Description: G-401 cells (ATCC) were intradermally transplanted into 4-7-week-old BALB/cAnNCrj-nu/nu mice (CAnN.Cg-Foxn1/CrlCrlj, Jackson Laboratory Japan) at 5×10^5 cells/mouse. After confirming the engraftment of G-401 cells 10-40 days after transplantation, the test compound suspended in a solvent such as 10 mmol/L glycine buffer solution (pH 2.0) was administered via the tail vein at least once a week at a dose of 0.015-20 mg/kg. The tumor volume was measured over time from the start of administration, and the effect of tumor volume reduction by administration of the test compound was evaluated. The tumor volume can be calculated from the following equation using the minor axis and major axis of the tumor measured with an electronic caliper (Mitutoyo).
A control administration group administered with only a solvent such as 10 mmol/L glycine buffer solution (pH 2.0) and a test compound administration group were compared, and the antitumor effect was evaluated by calculating T/C from the following equation.

[8] = target: hDAT (Homo sapiens (Human), UniProt Q01959); assay: Dopamine receptor inhibitory activity evaluation (binding assay, CHO-S/hDAT membranes); details: CHO-S/hDAT membrane preparation
hDAT, sequence (Q01959 whole entry): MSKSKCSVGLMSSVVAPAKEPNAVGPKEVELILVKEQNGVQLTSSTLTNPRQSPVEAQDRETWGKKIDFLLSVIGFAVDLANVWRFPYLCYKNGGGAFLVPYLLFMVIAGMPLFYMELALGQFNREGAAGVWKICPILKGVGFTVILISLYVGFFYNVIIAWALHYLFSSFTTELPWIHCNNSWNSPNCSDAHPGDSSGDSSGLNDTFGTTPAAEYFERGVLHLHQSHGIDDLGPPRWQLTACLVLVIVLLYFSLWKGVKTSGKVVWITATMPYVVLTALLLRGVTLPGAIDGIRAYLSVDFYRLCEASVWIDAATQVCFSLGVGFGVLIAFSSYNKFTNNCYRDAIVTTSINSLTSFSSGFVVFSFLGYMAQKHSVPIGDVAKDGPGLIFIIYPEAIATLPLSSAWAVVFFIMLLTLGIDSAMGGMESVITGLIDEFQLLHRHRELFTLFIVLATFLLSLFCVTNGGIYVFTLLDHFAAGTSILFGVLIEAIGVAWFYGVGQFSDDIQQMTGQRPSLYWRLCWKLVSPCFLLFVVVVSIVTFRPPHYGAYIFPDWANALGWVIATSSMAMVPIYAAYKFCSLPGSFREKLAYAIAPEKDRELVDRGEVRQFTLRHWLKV
Description: The binding evaluation assay was outsourced to Eurofins. Specifically, CHO-S/hDAT cells were homogenized in an incubation buffer consisting of 50 mmol/L Tris-HCl, pH 7.4, 100 mmol/L NaCl, 1 μmol/L Leupeptin, and 10 μmol/L PMSF. The membrane pellet obtained by centrifugation was resuspended in the incubation buffer to prepare a membrane preparation. The test compound (1-10 μmol/L DMSO solution), the membrane preparation, and 0.15 nmol/L […] were mixed and incubated at 4° C. for 180 minutes. The cell membrane-[^125I]RTI-55 complex was bound to a GF/B filter mat by vacuum filtration and washed with 50 mmol/L Tris-HCl, pH 7.4. The effect on the receptor was assessed by measuring radioactivity using a scintillation counter.

[9] = 10 mmol/L citrate buffer (pH 3.0), read-out: Solubility in pH 3.0 buffer
[10] = 10 mmol/L glycine buffer (pH 2.0), read-out: Solubility in pH 2.0 buffer
[11] = pH 5.0, 37° C., read-out: pH 5.0 Pe
[12] = pH 7.4, 37° C., read-out: pH 7.4 Pe

Compound	IC50 [1]	IC50 [2]	IC50 [3]	IC50 [4]	solubility [5, 9]	solubility [5, 10]	Papp at 4 h [6, 11]	Papp at 4 h [6, 12]	antitumor effect (in words) [7]	T/C ([7]; 10 mg/kg)	inhibition at 10 µM [8]	T/C ([7]; 20 mg/kg)
CN1CC(N(Cc2ccc(F)cn2)C(=O)CN2C(=O)N[C@]3(C[C@@H](F)c4cc(-c5cnn(C)c5)ccc43)C2=O)(C(F)(F)F)C1 [Example 20, 2-[(1′S,3′R)-3′-fluoro-5′-(1-methyl-1H-pyrazol-4-yl)-2,5-dioxo-2′,3′-dihydrospiro[imidazolidine-4,1′-inden]-1-yl]-N-[(5-fluoropyridin-2-yl)methyl]-N-[1-methyl-3-(trifluoromethyl)azetidin-3-yl]acetamide]	1.7 nM	36 nM	320 nM	43 nM	8600 µg/mL (≈ 14.2 mM)	> 10000 µg/mL	7.8 ×10⁻⁶ cm/s	21.9 ×10⁻⁶ cm/s	strong antitumor effects	53%	46%	
CN1CC(N(Cc2ccc(F)cc2)C(=O)CN2C(=O)N[C@]3(C[C@@H](F)c4cc(-c5cnn(C)c5)ccc43)C2=O)(C(F)(F)F)C1 [Example 10, 2-[(1′S,3′R)-3′-fluoro-5′-(1-methyl-1H-pyrazol-4-yl)-2,5-dioxo-2′,3′-dihydrospiro[imidazolidine-4,1′-inden]-1-yl]-N-[(4-fluorophenyl)methyl]-N-[1-methyl-3-(trifluoromethyl)azetidin-3-yl]acetamide]	0.4 nM	10 nM	66 nM	6 nM	1600 µg/mL (≈ 2.66 mM)	> 10000 µg/mL	23.9 ×10⁻⁶ cm/s	28.6 ×10⁻⁶ cm/s	strong antitumor effects	73%	6%	
O=C1N[C@]2(C[C@@H](F)c3cc(-c4cnn(C5CCN(C6COC6)CC5)c4)ccc32)C(=O)N1CC(=O)N(Cc1ccc(F)cn1)C1(C(F)(F)F)COC1 [Example 23, 2-[(1′S,3′R)-3′-fluoro-5′-{1-[1-(oxetan-3-yl)piperidin-4-yl]-1H-pyrazol-4-yl}-2,5-dioxo-2′,3′-dihydrospiro[imidazolidine-4,1′-inden]-1-yl]-N-[(5-fluoropyridin-2-yl)methyl]-N-[3-(trifluoromethyl)oxetan-3-yl]acetamide]	9 nM	82 nM	591 nM	54 nM	8600 µg/mL (≈ 12 mM)	> 10000 µg/mL	3.2 ×10⁻⁶ cm/s	7 ×10⁻⁶ cm/s	strong antitumor effects		7%	54%
CN1CC(N(Cc2ccc(F)cn2)C(=O)CN2C(=O)N[C@]3(C[C@@H](F)c4cc(-c5cnn(C6COC6)c5)ccc43)C2=O)(C(F)(F)F)C1 [Example 24, 2-{(1′S,3′R)-3′-fluoro-5′-[1-(oxetan-3-yl)-1H-pyrazol-4-yl]-2,5-dioxo-2′,3′-dihydrospiro[imidazolidine-4,1′-inden]-1-yl}-N-[(5-fluoropyridin-2-yl)methyl]-N-[1-methyl-3-(trifluoromethyl)azetidin-3-yl]acetamide]	9.8 nM	36 nM	399 nM	37 nM	> 10000 µg/mL	> 10000 µg/mL	1.6 ×10⁻⁶ cm/s	8.2 ×10⁻⁶ cm/s	strong antitumor effects		6%	44%
O=C1N[C@]2(C[C@@H](F)c3cc(-c4cnn(C5CN(C6COC6)C5)c4)ccc32)C(=O)N1CC(=O)N(Cc1ccc(F)cn1)C1(C(F)(F)F)COC1 [Example 7, 2-[(1′S,3′R)-3′-fluoro-5′-{1-[1-(oxetan-3-yl)azetidin-3-yl]-1H-pyrazol-4-yl}-2,5-dioxo-2′,3′-dihydrospiro[imidazolidine-4,1′-inden]-1-yl]-N-[(5-fluoropyridin-2-yl)methyl]-N-[3-(trifluoromethyl)oxetan-3-yl]acetamide]	0.9 nM	44 nM	298 nM	35 nM	4600 µg/mL (≈ 6.69 mM)	> 10000 µg/mL	3 ×10⁻⁶ cm/s	5.1 ×10⁻⁶ cm/s	strong antitumor effects		7%	40%
